The results in this text go back to patent US20230256095A1, “DYES FOR USE IN A METHOD OF TREATMENT OF VITREOUS OPACITY-RELATED DISEASES” (UNIVERSITEIT GENT, priority 2020, published 2023).

One series has as its target T1, collagen fibers (Rattus norvegicus, UniProt P02454+P02466).
T1 construct: host or cells: exogenous fibres injected into the vitreous of New Zealand White rabbits
The series can be described thus: In vivo laser photo-ablation of intravitreally injected collagen fibers. Details: species or system rabbit. The text has this:
A total of 24 New Zealand White rabbits (age 3-6 months; weight 2.45-3.15 kg; both genders) were used. The rabbits were randomly divided into 7 groups: a control group A treated with laser only (n=3), group B received an intravitreal (IVIT) injection of ICG (n=9), group C received an IVIT injection of ICG labeled collagen fibers (n=3), group D was IVIT injected with collagen fibers followed by an IVIT injection of ICG (n=3), group E was IVIT injected with HA-AuNPs labeled floaters (n=3), and group F was IVIT injected with floaters followed by an IVIT injection of HA-AuNPs (n=3). During the in vivo experiments, animal conditions such as mucous membrane color, heart rate, body heat, and respiratory rate were monitored every 15 minutes. The animals were anesthetized by intramuscular injection of ketamine (40 mg/kg) and xylazine (5 mg/kg). A drop of tropicamide (1%) and phenylephrine hydrochloride (2.5%) was applied into the rabbit eyes to dilate their pupils at 15 min before the imaging procedures. For topical anaesthesia, a drop of topical tetracaine (0.5%) was used. To avoid corneal dehydration during the experiment, a lubricant solution (Systane, Alcon Inc., TX, USA) was added into the eye every minute using a syringe with plastic needle. To maintain the anaesthesia, a dose of ketamine (13 mg/kg) was injected every 45 min. The animal's body heat was maintained using a circulation heat blanket.
First, to visualize the retina of the rabbit eyes, a plastic contact lens was placed on the cornea. When the target location in the vitreous was selected under the microscope, the rabbits under anaesthesia were subsequently intravitreally injected. The intravitreal injections were performed using a 27 gauge needle. […] The position of the fibers was monitored by OCT so that the intravitreal injection of ICG could be performed close the area where the fibers were located. […]
Before laser treatment, the rabbit's eyes were imaged by PAM and OCT (see section above). […] Also, rabbit's vital signs were monitored and recorded until the animals fully recovered from anaesthesia.

A short description of series [1]: In vivo safety evaluation of treated eyes. Details: species or system rabbit. The text has this: Before laser treatment, the rabbit's eyes were imaged by PAM and OCT (see section above). For laser treatment, anesthetized rabbits were kept on a custom-built stabilization platform. After acquiring the images and locating the opacities (collagen fibers) by OCT, areas in the eyes (4.5×4.5 mm^2) were illuminated with laser pulses (<7 ns; 1.9 J/cm^2) NT-242, Ekspla, Lithuania) of 800 nm (ICG) to destroy the collagen fibers; the step size of the scanning laser was 9 μm, the beam size equaled 20 μm. During the treatment, real-time OCT was active to monitor the position of the collagen fibers. The 4.5×4.5 mm^2 area was laser scanned several times (3-7 times) until the collagen fibers were completely destroyed. After the laser treatment, PAM and fundus images were performed to evaluate the potential damage of retinal vessels. Also, rabbit's vital signs were monitored and recorded until the animals fully recovered from anaesthesia.
Treated eyes were ophthalmologically evaluated immediately after the laser treatment and followed up for 1 month. Anterior segment structures such as the eyelids, iris, conjunctiva, cornea, anterior chamber and lens were comprehensively examined using slit lamp bio-microscopy (SL120, Carl Zeiss, Germany). In addition, posterior segment structures (i.e., the vitreous, optic nerve and retina) were assessed using a contact fundus lens (Volk Optical Inc, Mentor, Ohio, USA).

Setting [2] is: eyes treated with laser with ICG.

T1 sequence (P02454 152-1207 limits assumed): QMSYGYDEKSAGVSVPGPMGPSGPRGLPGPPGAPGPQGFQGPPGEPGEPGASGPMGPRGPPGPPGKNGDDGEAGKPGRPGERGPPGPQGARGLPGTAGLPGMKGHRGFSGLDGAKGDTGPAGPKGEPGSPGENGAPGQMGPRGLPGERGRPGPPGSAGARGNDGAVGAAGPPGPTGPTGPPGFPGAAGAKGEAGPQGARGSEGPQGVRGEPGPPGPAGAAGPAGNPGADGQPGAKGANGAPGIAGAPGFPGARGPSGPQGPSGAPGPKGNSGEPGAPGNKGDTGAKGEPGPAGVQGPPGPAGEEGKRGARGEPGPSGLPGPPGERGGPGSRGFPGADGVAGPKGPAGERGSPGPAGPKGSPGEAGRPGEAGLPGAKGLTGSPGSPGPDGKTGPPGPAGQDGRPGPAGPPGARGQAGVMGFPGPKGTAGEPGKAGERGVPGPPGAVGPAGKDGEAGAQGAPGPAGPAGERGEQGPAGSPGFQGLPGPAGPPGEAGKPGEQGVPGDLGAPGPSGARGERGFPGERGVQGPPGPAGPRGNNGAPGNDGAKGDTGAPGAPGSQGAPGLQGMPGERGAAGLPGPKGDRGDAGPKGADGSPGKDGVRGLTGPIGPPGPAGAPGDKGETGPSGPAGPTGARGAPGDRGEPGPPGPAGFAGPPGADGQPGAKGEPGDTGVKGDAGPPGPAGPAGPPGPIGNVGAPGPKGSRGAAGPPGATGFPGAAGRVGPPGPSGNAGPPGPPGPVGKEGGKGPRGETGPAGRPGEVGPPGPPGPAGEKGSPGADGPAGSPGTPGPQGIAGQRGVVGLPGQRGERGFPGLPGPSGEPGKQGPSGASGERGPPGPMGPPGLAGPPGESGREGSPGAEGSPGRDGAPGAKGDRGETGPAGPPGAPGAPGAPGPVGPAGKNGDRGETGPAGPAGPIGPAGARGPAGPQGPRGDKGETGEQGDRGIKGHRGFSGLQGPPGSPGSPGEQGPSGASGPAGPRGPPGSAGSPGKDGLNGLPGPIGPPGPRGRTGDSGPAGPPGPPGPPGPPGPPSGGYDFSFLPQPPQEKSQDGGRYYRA
T1 sequence (P02466 86-1125 limits assumed): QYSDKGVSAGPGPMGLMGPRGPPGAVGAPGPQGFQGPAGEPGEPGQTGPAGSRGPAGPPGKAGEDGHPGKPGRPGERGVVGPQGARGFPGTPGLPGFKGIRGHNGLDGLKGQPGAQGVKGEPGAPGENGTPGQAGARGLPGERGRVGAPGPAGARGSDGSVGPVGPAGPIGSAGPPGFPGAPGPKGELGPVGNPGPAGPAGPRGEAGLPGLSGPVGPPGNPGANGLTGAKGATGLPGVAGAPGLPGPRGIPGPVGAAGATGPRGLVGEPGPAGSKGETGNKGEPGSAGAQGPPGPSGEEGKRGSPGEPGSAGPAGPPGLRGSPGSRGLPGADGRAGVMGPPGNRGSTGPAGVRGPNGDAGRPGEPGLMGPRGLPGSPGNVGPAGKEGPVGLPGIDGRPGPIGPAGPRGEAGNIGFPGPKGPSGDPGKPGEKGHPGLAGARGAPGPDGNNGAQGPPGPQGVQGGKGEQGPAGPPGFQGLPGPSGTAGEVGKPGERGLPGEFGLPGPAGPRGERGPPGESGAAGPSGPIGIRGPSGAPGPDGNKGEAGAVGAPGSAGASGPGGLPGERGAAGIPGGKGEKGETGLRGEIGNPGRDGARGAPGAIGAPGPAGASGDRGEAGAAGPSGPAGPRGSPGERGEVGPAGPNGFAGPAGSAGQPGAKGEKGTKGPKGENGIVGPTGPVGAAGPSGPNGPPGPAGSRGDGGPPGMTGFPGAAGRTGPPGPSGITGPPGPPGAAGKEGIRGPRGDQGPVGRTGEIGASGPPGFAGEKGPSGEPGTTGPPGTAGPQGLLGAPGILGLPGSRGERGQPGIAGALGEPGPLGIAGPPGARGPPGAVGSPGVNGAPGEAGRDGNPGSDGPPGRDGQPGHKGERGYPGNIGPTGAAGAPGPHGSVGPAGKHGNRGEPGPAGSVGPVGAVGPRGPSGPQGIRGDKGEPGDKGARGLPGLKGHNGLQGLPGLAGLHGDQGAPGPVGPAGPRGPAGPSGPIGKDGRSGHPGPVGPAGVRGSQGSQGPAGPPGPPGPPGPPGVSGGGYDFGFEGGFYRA

For `CC1(C)C(/C=C/C=C/C=C/C=C2\N(CCCCS(=O)(=O)O)c3ccc4ccccc4c3C2(C)C)=[N+](CCCCS(=O)(=O)[O-])c2ccc3ccccc3c21` [ICG, Indocyanine Green], the “destruction of collagen fibers in vivo” value at collagen fibers (IVIT 0.625 mg/mL, 800 nm, 1.9 J/cm^2) was “complete destruction of the collagen fibers”. Moreover, the “laser pulses (scans) sufficient to completely destroy injected collagen fibers” value on collagen fibers (IVIT 1.25 mg/mL, 800 nm, 1.9 J/cm^2, 3 days after ICG) is given as 5 laser pulses. On collagen fibers (all rabbits tested (n=3)), the “pulses sufficient to destroy the IVIT injected fibers” value was 3.3+/−1.5 pulses. In addition, in series [1] (30 days post treatment), the “anterior segment 30 days post treatment” value is “normal corneas, eyelids, anterior chamber, conjunctiva and transparent lenses”. In series [1] (setting [2]), the “anterior segment, visual inspection” value was “normal corneas, eyelids, anterior chamber, conjunctiva, and transparent lens”; the “posterior segment, color fundus imaging” value is recorded as “no significant changes or injuries in the posterior segment structure”. The “retinal layers, B-scan OCT” value in series [1] (post laser treatment) was “did not indicate structural disorganization in the retinal layers”.
